Patent US20220233512A1, “INHIBITING AN IMMUNE RESPONSE MEDIATED BY ONE OR MORE OF TLR2, RAGE, CCR5, CXCR4 AND CD4” (priority 2020, published 2022)

Target: T1, mu opiate receptor (MOR) (Rattus norvegicus, UniProt P33535)
T1 construct: from tissue; host or cells: striatum (membrane preparation)
Assay: MOR agonist activity using [35S]GTPgS binding assay in striatal membranes
Assay type: biochemical
Experimental: To assess the mu opiate receptor (MOR) agonist activity of positive compounds from the FLNA screening, compounds were tested in a [^35S]GTPgS binding assay using striatal membranes. […] This assay measures a functional consequence of receptor occupancy at one of the earliest receptor-mediated events. The assay permits for traditional pharmacological parameters of potency, efficacy and antagonist affinity, with the advantage that agonist measures are not subjected to amplification or other modulation that may occur when analyzing parameters further downstream of the receptor.
Thus, striatal tissue was homogenized in 10 volumes of ice cold 25 mM HEPES buffer, pH 7.4, which contained 1 mM EGTA, 100 mM sucrose, 50 mg/ml leupeptin, 0.04 mM PMSF, 2 mg/ml soybean trypsin inhibitor and 0.2% 2-mercaptoethanol. The homogenates were centrifuged at 800×g for 5 minutes and the supernatants were centrifuged at 49,000×g for 20 minutes. The resulting pellets were suspended in 10 volume of reaction buffer, which contained 25 mM HEPES, pH 7.5, 100 mM NaCl, 50 mg/ml leupeptin, 2 mg/ml soybean trypsin inhibitor, 0.04 mM PMSF and 0.02% […].
The resultant striatal membrane preparation (200 mg) was admixed and maintained (incubated) at 30° C. for 5 minutes in reaction buffer as above that additionally contained 1 mM MgCl2 and 0.5 nM [^35S]GTPgS (0.1 mCi/assay, PerkinElmer Life and Analytical Sciences) in a total volume of 250 ml and continued for 5 minutes in the absence or presence of 0.1-10 mM of an assayed compound of interest. The reaction was terminated by dilution with 750 ml of ice-cold reaction buffer that contained 20 mM MgCl2 and 1 mM EGTA and immediate centrifugation at 16,000×g for 5 minutes.
The resulting pellet was solubilized by sonicating for 10 seconds in 0.5 ml of immunoprecipitation buffer containing 0.5% digitonin, 0.2% sodium cholate and 0.5% NP-40. Normal rabbit serum (1 ml) was added to 1 ml of lysate and incubated at 25° C. for 30 minutes. Nonspecific immune complexes were removed by incubation with 25 ml of protein A/G-conjugated agarose beads at 25° C. for 30 minutes followed by centrifugation at 5,000×g at 4° C. for 5 minutes. The supernatant was divided and separately incubated at 25° C. for 30 minutes with antibodies raised against Gao proteins (1:1,000 dilutions).
The immunocomplexes so formed were collected by incubation at 25° C. for 30 minutes with 40 ml of agarose-conjugated protein A/G beads and centrifugation at 5,000×g at 4° C. for 5 minutes. The pellet was washed and suspended in buffer containing 50 mM Tris-HCl, pH 8.0, and 1% NP-40. The radioactivity in the suspension was determined by liquid scintillation spectrometry. […] DAMGO (1 or 10 mM) was used as a positive control.

[1] = 0.1 μM compound as agonist, Series C-1 table
[2] = 1 μM compound as agonist, Series C-1 table
[3] = 0.1 μM compound as agonist, Series C-2 table
[4] = 1 μM compound as agonist, Series C-2 table

T1 sequence (P33535 whole entry): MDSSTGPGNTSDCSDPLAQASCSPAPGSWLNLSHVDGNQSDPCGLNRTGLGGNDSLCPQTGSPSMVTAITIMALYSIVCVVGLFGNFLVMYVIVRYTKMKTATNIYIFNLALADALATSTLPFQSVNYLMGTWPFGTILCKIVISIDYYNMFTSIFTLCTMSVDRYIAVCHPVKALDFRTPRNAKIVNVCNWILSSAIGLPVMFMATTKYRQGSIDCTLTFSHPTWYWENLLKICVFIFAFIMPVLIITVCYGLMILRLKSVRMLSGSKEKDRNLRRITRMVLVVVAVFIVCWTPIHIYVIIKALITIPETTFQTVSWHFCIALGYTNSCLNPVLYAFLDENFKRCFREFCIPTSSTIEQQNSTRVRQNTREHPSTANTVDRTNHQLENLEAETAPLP

Compound | MOR agonist activity ([35S]GTPgS binding to Gao) [1] | MOR agonist activity ([35S]GTPgS binding to Gao) (1 μM + BFNA, Series C-1 table) | MOR agonist activity ([35S]GTPgS binding to Gao) [2] | MOR agonist activity ([35S]GTPgS binding to Gao) [3] | MOR agonist activity ([35S]GTPgS binding to Gao) (1 μM + BFNA, Series C-2 table) | MOR agonist activity ([35S]GTPgS binding to Gao) [4]
COc1ccc(S(=O)(=O)N2CCOC23CCN(S(=O)(=O)c2ccc(C(C)=O)cc2)CC3)cc1 [Compound C0047] | 142.2% | 80.1% | 206.1% |  |  | 
COc1ccc(S(=O)(=O)N2CCC3(CC2)OCCN3S(=O)(=O)c2ccc(C(C)=O)cc2)cc1 [Compound C0048] | 209.1% | 89.9% | 245.3% |  |  | 
COc1ccc(S(=O)(=O)N2CCC3(CC2)OCCN3S(=O)(=O)c2ccc(OC)c(OC)c2)cc1OC [Compound C0049] | 106.6% | 81.0% | 210.0% |  |  | 
CC(=O)N1CCSC12CCN(S(=O)(=O)c1ccc([N+](=O)[O-])cc1)CC2 [Compound C0050] |  |  |  | 110.3% | 59.0% | 127.6%
CC(O)c1ccc(S(=O)(=O)N2CCC3(CC2)OCCN3S(=O)(=O)c2ccc(C(C)O)cc2)cc1 (stereo not drawn) [Compound C0051] | 94.4% | 55.9% | 170.4% |  |  | 
CC(=O)c1ccc(C(=O)N2CCC3(CC2)OCCN3S(=O)(=O)c2ccc(C(C)=O)cc2)cc1 [Compound C0052] | 108.4% | 42.7% | 162.8% |  |  | 
CC(=O)c1ccc(C(=O)N2CCOC23CCN(S(=O)(=O)c2ccc(C(C)=O)cc2)CC3)cc1 [Compound C0053] | 104.0% | 93.1% | 157.2% |  |  | 
CC(=O)c1ccc(C(=O)N2CCC3(CC2)OCCN3C(=O)c2ccc(C(C)=O)cc2)cc1 [Compound C0054] | 68.2% | 43.5% | 127.0% |  |  | 
CC(=O)c1ccc(S(=O)(=O)N2CCC3(CC2)OCCN3S(C)(=O)=O)cc1 [Compound C0056] |  |  |  | 98.6% | 86.3% | 193.4%
CC(=O)c1ccc(S(=O)(=O)N2CCC3(CC2)NCCS3)cc1 [Compound C0060] |  |  |  | 166.5% | 143.9% | 218.9%
COc1cc(S(=O)(=O)N2CCC3(CC2)OCCN3S(=O)(=O)c2cc(OC)c(OC)c(OC)c2)cc(OC)c1OC [Compound C0062] | 127.8% | 59.8% | 310.5% |  |  | 
CC(=O)c1ccc(S(=O)(=O)N2CCC3(CC2)NC(=O)CN3S(=O)(=O)c2ccc(C(C)=O)cc2)cc1 [Compound C0064] | 213.8% | 38.1% | 349.6% |  |  | 
CC(=O)c1ccc(S(=O)(=O)N2CCC3(CC2)OC(CN(C)C)CN3S(=O)(=O)c2ccc(C(C)=O)cc2)cc1 (stereo not drawn) [Compound C0065] | 198.3% | 47.7% | 279.5% |  |  | 
O=S(=O)(c1ccc(Cl)cc1)N1CCC2(CC1)OCCN2S(=O)(=O)c1ccc(Cl)cc1 [Compound C0067] | 142.7% | 33.5% | 179.0% |  |  | 
O=S(=O)(c1ccc(Br)cc1C(F)(F)F)N1CCC2(CC1)OCCN2S(=O)(=O)c1ccc(Br)cc1C(F)(F)F [Compound C0068] | 107.2% | 165.9% | 263.1% |  |  | 
O=S(=O)(c1ccc(Br)cc1Br)N1CCC2(CC1)OCCN2S(=O)(=O)c1ccc(Br)cc1Br [Compound C0070] | 165.6% | 114.2% | 210.8% |  |  | 

Compound | MOR agonist activity ([35S]GTPgS binding to Gao) [1] | MOR agonist activity ([35S]GTPgS binding to Gao) (1 μM + BFNA, Series C-1 table) | MOR agonist activity ([35S]GTPgS binding to Gao) [2] | MOR agonist activity ([35S]GTPgS binding to Gao) [3] | MOR agonist activity ([35S]GTPgS binding to Gao) (1 μM + BFNA, Series C-2 table) | MOR agonist activity ([35S]GTPgS binding to Gao) [4]
O=S(=O)(c1ccc(C(F)(F)F)cc1Br)N1CCC2(CC1)OCCN2S(=O)(=O)c1ccc(C(F)(F)F)cc1Br [Compound C0071] | 276.3% | 177.1% | 355.3% |  |  | 
O=S(=O)(c1ccc(F)c(F)c1)N1CCC2(CC1)OCCN2S(=O)(=O)c1ccc(F)c(F)c1 [Compound C0072] | 172.7% | 67.1% | 259.1% |  |  | 
O=S(=O)(c1ccc(Br)c(C(F)(F)F)c1)N1CCC2(CC1)OCCN2S(=O)(=O)c1ccc(Br)c(C(F)(F)F)c1 [Compound C0077] | 192.7% | 136.7% | 265.4% |  |  | 
O=S(=O)(c1ccc(Br)cc1F)N1CCC2(CC1)OCCN2S(=O)(=O)c1ccc(Br)cc1F [Compound C0078] | 138.1% | 170.7% | 236.6% |  |  | 
CC(=O)c1ccc(S(=O)(=O)N2CCC3(CC2)OCC(CCCCN(C)C)N3S(=O)(=O)c2ccc(C(C)=O)cc2)cc1 (stereo not drawn) [Compound C0080] | 187.9% | 167.1% | 205.4% |  |  | 
CC(=O)c1ccc(S(=O)(=O)N2CCC3(CC2)NCC(=O)N3Cc2ccccc2)cc1 [Compound C0082M] | 228.1% | 97.6% | 338.4% |  |  | 
CC(=O)c1ccc(S(=O)(=O)N2CCC3(CC2)NC(=O)C(Cc2cnc[nH]2)N3S(=O)(=O)c2ccc(C(C)=O)cc2)cc1 (stereo not drawn) [Compound C0084M] | 163.1% | 133.2% | 255.5% |  |  | 
CC(=O)c1ccc(S(=O)(=O)N2CCC3(CC2)NC(=O)CN3Cc2ccccc2)cc1 [Compound C0085M] | 211.6% | 43.7% | 246.2% |  |  | 
CC(=O)c1ccc(S(=O)(=O)N2CC(=O)NC23CCNCC3)cc1 [Compound C0086M] |  |  |  | 206.8% | 152.3% | 265.3%
CC(=O)c1ccc(S(=O)(=O)N2CCC3(CC2)NC(=O)CO3)cc1 [Compound C0087M] |  |  |  | 262.8% | 142.5% | 329.6%
COc1ccc(S(=O)(=O)N2CCOC23CCN(C)CC3)cc1 [Compound C0088M] |  |  |  | 276.3% | 177.1% | 355.3%
CCN1CCC2(CC1)OCCN2S(=O)(=O)c1ccc(OC)cc1 [Compound C0089M] |  |  |  | 234.5% | 81.9% | 295.3%
COc1ccc(S(=O)(=O)N2CCOC23CCN(CC2CC2)CC3)cc1 [Compound C0090M] |  |  |  | 237.0% | 41.0% | 341.0%
C=CCN1CCC2(CC1)OCCN2S(=O)(=O)c1ccc(OC)cc1 [Compound C0091M] |  |  |  | 207.9% | 80.8% | 274.4%
CC(=O)c1ccc(S(=O)(=O)N2CCOC23CCN(C)CC3)cc1 [Compound C0093M] |  |  |  | 140.0% | 44.0% | 211.8%
